Source: patent US11945782B2, “Composition and methods of use of tetrahydroisoquinoline small molecules to bind and modulate PCSK9 protein activity” (SRX CARDIO, LLC, priority 2015, dated 2024)

Legend:
recombinant PCSK9 [1] = biological target: T1, recombinant PCSK9 (Homo sapiens, UniProt Q8NBP7); assay: DiI-LDL Uptake Assay in HepG2 cells with recombinant PCSK9; format: cell-based; details: 2.5 ug/mL PCSK9, read-out: Uptake Assay: % Inhibition of 2.5 ug/mL recombinant PCSK9 @ X compound dose; for inhibition at 0.313 µM: 0.313 uM compound; for inhibition at 10 µM: 10 uM compound; for inhibition at 1.25 µM: 1.25 uM compound
T1 sequence (Q8NBP7 153-692): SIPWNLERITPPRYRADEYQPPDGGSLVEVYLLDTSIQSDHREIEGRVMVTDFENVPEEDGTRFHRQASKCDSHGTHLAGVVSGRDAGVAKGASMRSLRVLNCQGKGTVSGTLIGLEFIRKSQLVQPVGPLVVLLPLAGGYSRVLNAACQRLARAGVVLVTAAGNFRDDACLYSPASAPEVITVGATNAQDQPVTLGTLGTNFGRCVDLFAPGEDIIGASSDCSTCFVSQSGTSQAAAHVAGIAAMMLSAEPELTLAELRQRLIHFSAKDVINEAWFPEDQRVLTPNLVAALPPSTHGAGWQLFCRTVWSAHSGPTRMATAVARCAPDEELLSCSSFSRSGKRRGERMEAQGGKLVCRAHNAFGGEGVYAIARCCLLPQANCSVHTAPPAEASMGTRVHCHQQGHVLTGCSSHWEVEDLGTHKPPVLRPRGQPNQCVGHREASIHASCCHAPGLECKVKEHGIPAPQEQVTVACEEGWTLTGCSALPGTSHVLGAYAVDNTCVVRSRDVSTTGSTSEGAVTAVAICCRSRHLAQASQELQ
Protocol: (§1) The cells were incubated in a 96-well plate for a total of 16 h in the absence or presence of recombinant PCSK9 (final concentration 2.5 ug/ml) protein alone or recombinant PCSK9 protein pre-mixed with indicated concentration of experimental compounds (Cmpd #). After 16 h, DiI-LDL (final concentration 5 ug/ml) was added to the incubation mixtures. After 4 h, cells are stained with Hoechst 33342 for 30 minutes, then rinsed with phosphate buffered saline, and then a final volume of 100 ul phosphate buffered saline was added to each well. The fluorescence was measured (DiI: excitation at 550 nm and emission at 590 nm; Hoechst: excitation at 355 nm, emission at 460 nm). […] The cells were incubated in 24-well plates for a total of 6 h in the absence or presence of recombinant PCSK9 protein (final concentration of 5.0 ug/ml), or in the presence of PCSK9 protein mixed with indicated concentration of experimental compound (Cmpd #). After 6 hours, the cells were released from the plate, stained with anti-LDLR antibody, then rinsed, counterstained with DAN, and then measured by fluorescence activated cell sorting (FACS). The percent recombinant PCSK9 inhibition was calculated as [‘Compound Dose LDLR Fluorescence’-‘5.0 ug/ml PCSK9-treated LDLR Fluorescence’]/[‘PCSK9 Basal LDLR Fluorescence’-‘5.0 ug/ml PCSK9-treated LDLR Fluorescence’]×100%.
Cellular DiI-LDL uptake can be measured using protocols adapted from Benjannet et al., “Effects of the prosegment and pH on the activity of PCSK9: evidence for additional processing events” J Biol Chem. 285(52): 40965-40978 (2010) and “Composition and Methods of Use of Small Molecules as Binding Ligands for the Modulation of Proprotein Convertase Subtilisin/Kexin Type 9 (PCSK9) Protein Activity” (WO2016029037), which are incorporated by reference in their entirety.
Cells, such as HepG2, HuH7, FL83B, or a cell line transfected with a short-hairpin PCSK9 knockdown sequence such as HepG2/shPCSK9, HuH7/shPCSK9, or FL83B/shPCSK9 are plated and cultured at 37° C. for 12-24 h. Culture media is removed and replaced with fresh lipoprotein-depleted culture media supplemented with 5 ug/mL of DiI-LDL (Kalen Biomedical) or lipoprotein-depleted culture media supplemented with 5 ug/mL of Dil-LDL plus a predetermined concentration of recombinant PCSK9, for example a 10 nM final concentration of PCSK9. Lipoprotein-depleted culture media can be composed of DMEM (Invitrogen) with 10% lipoprotein-depleted fetal bovine serum (Kalen Biomedical) and supplemented with penicillin-streptomycin (Life Technologies). Cells are dosed with small molecule test compounds at doses ranging from 0 nM to 100 uM.
Following an incubation period of specified length, such as 6 hours, Hoechst 33342 (AnaSpec) stain is added to the cell media per manufacturer's instructions and incubated for a specified length (e.g., 30 minutes). The lipoprotein-depleted media is removed and cells rinsed three times with phosphate buffered saline. A final volume of phosphate buffered saline is added back to the wells. The DiI fluorescence is measured with a plate reader using an exciting wavelength of 550 nm and the resulting emission at 590 nm is measured. The Hoechst stain fluorescence is measured with a plate reader using an exciting wavelength of 355 nm and the resulting emission at 460 nm is measured.
Cells are analyzed by for both Hoechst stain (DNA content) and DiI-LDL fluorescence. Cells incubated with small molecule compounds that are inhibitors of PCSK9 will be expected to show increased amounts of DiI-LDL fluorescence, relative to control (no compound) specimens, and cells incubated with small molecule compounds that are activators of PCSK9 will be expected to show decreased amounts of DiI-LDL fluorescence relative to control (no compound) specimens.

recombinant PCSK9 [2] = biological target: T1, recombinant PCSK9; assay: LDLR FACS (flow) Assay in HuH7 cells with recombinant PCSK9; format: cell-based; details: 5.0 ug/mL PCSK9, read-out: LDLR Flow Assay: % Inhibition of 5.0 ug/mL recombinant PCSK9 @ X compound dose; for inhibition at 5 µM: Huh-7, 5 uM compound
Protocol: as §1
LDLR levels can be measured using flow cytometry or fluorescence activated cell sorting (FACS) using protocols adapted from Benjannet et al., “Effects of the prosegment and pH on the activity of PCSK9: evidence for additional processing events” J Biol Chem. 285(52): 40965-40978 (2010) and “Composition and Methods of Use of Small Molecules as Binding Ligands for the Modulation of Proprotein Convertase Subtilisin/Kexin Type 9 (PCSK9) Protein Activity” (WO2016029037), which are incorporated by reference in their entirety.
Cells, such as HepG2, HuH7, FL83B, or a cell line transfected with a short-hairpin PCSK9 knockdown sequence such as HepG2/shPCSK9, HuH7/shPCSK9, or FL,83B/shPCSK9 are plated and cultured at 37° C. for 12-24 h. Culture media is removed and replaced with fresh culture media or culture media plus a predetermined amount of recombinant PCSK9, for example a 10 nM final concentration of PCSK9. Cell culture media can be composed of DMEM (Invitrogen) with 10% fetal bovine serum (Life Technologies) supplemented with penicillin-streptomycin (Life Technologies). Cells are dosed with small molecule test compounds at doses ranging from 0 nM to 100 uM
Following an incubation period of specified length, such as 6 hours, the media is removed and the cells are rinsed three times with a rinse solution (i.e., Dulbecco's phosphate buffered saline (D-PBS, Life Technologies) supplemented with 0.5% bovine serum albumin (BSA, Sigma) and 1 g/L glucose (Sigma)). The fluid is then removed, and cells are released from the plate using TrypLE Express (Life Technologies) per manufacturer's recommend procedures, such as incubation for 5-10 minutes at 37° C. The TyrpLE-Cell suspension is then transferred to 15 mL conical tubes, volume is increased to 2 mL with D-PBS supplemented with 0.5% BSA and […] glucose, and the tubes are centrifuged at 250× gravity for 10 minutes. Following centrifugation, the supernatant is aspirated and the cell pellet is resuspended in 100 uL D-PBS containing 0.5% BSA and […] glucose, and cells are labeled with anti-LDLR antibody per the manufacturer's recommended procedure. The cells are then pelleted by centrifugation, resuspended in 300 uL PBS and counterstained with 4′,6-Diamidino-2-phenylindole (DAPI, Cayman Chemical) as a cell viability marker, other cell viability markers such as 7-aminoactinomycin D (7AAD, Life Technologies) have also been described in the art.
Cells are analyzed for both cell viability marker (dead cells) and LDLR in live cells using a flow cytometer per the manufacturer's operating manual. […]

Structure (SMILES)	inhibition at 0.313 µM (recombinant PCSK9 [1]) [%]	inhibition at 10 µM (recombinant PCSK9 [1]) [%]	inhibition at 5 µM (recombinant PCSK9 [2]) [%]	inhibition at 1.25 µM (recombinant PCSK9 [1]) [%]	further results
c1ccc(-c2ccc3c(c2)CNCC3)cc1 [Compound 1, 7-phenyl-1,2,3,4-tetrahydroisoquinoline]	~45	> 100	–	–	inhibition at 0.625 µM (recombinant PCSK9 [2]; Huh-7, 0.625 uM compound): ~10%; inhibition at 1.25 µM (recombinant PCSK9 [2]; Huh-7, 1.25 uM compound): ~15%; inhibition at 20 µM (recombinant PCSK9 [2]; Huh-7, 20 uM compound): ~20%
Cc1cc2c(cc1-c1ccccc1F)CNCC2 [Compound 2, 7-(2-fluorophenyl)-6-methyl-1,2,3,4-tetrahydroisoquinoline]	~50	> 100	~19	–	–
Cc1cc(-c2ccccc2F)cc2c1CCNC2 [Compound 3, 7-(2-fluorophenyl)-5-methyl-1,2,3,4-tetrahydroisoquinoline]	–	> 100	–	~42	–
Cc1cc(-c2ccccc2F)cc2c1CCNC2=O [Compound 4, 7-(2-fluorophenyl)-5-methyl-3,4-dihydroisoquinolin-1(2H)-one]	–	–	~10	–	inhibition at 20 µM (recombinant PCSK9 [1]; 20 µM compound): ~18%
Cc1cc2c(cc1-c1ccccc1F)C(=O)NCC2 [Compound 5, 7-(2-fluorophenyl)-6-methyl-3,4-dihydroisoquinolin-1(2H)-one]	–	–	–	~33	inhibition at 10 µM (recombinant PCSK9 [2]; Huh-7, 10 uM compound): ~10%
